A word on the pEC50: it is the negative decadic logarithm of the EC50, by convention in mol/L. A lower pEC50 goes with a large EC50.

Experimental findings from patent US9981960B2, “Pyrrolidine compound and application as melanocortin receptor agonist” (MITSUBISHI TANABE PHARMA CORPORATION, priority 2014, dated 2018) are described below.

pEC50: −log10 of the molar value.

For this experiment, the target named is T1, Human MC1R (Homo sapiens, UniProt Q01726).
T1 construct: endogenous in cells; host or cells: human melanoma cell line HBL
The experiment can be described thus: MCR agonist measurement (cAMP measurement), human MC1R agonist activity in human melanoma cell line HBL. It counts as cell-based. Conditions: HBL cells; for pEC50: 37° C. for 30 minutes, intracellular cAMP by fluorescence method; for Human MC1R IA %: Intrinsic Activity, vehicle cAMP = 0%, αMSH at 10^-6 M = 100%. As to the method: (1) Method for Culturing Cells
Human MC1R agonist activity measurement was carried out by using human melanoma cell line HBL. Culture of HBL: F-10 Nutrient Mixture containing 10% FCS and Penicillin-streptomycin was used in the culture.
(2) cAMP Assay and Data Calculation
Each compound solution having each concentration was mixed with cAMP assay buffer (HBSS (Hank's Balanced Salt Solution) containing 10 mM HEPES and 0.1% BSA), and dispensed into 96 well plate. HBL was suspended in cAMP assay buffer containing 0.5 mM IBMX so that the concentrate became 5×10^4/mL, dispensed into the above 96 well plate, then mixed, left to stand at 37° C. for 30 minutes, and then the intracellular […] concentration was measured by fluorescence method using Envision (ex. 320 nm, em. 590 nm and 665 nm).

T1 sequence (Q01726 whole entry): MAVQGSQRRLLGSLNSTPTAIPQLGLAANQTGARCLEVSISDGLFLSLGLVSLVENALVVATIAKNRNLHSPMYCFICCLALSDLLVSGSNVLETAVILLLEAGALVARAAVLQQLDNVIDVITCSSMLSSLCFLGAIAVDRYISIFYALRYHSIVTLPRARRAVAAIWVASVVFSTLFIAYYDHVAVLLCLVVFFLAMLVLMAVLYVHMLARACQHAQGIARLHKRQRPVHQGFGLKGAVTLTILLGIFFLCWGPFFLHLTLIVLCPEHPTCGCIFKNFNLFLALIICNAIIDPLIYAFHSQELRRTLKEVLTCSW

Consider `COc1ccc([C@@H]2CN(C(C)(C)C)C[C@@]2(F)C(=O)N2CCC(c3ccc(C(F)(F)F)cc3N3CCC(C(N)=O)CC3)CC2)cc1` [Example 232], for which the negative-log EC50 (pEC50) is 8.00 and the “Human MC1R IA %” value amounted to 95%.

As for `COc1ccc([C@@H]2CN(C3CCCC3)C[C@@]2(F)C(=O)N2CCC=C(c3ccc(C(F)(F)F)cc3N3CCC(C(=O)O)CC3)C2)cc1` [Example 163], the pEC50 is 7.70 and the “Human MC1R IA %” value came out at 36%.

Consider `COc1ccc([C@@H]2CN([C@H]3CC[C@H](OC)CC3)C[C@@]2(F)C(=O)N2C[C@H](c3ccc(C(F)(F)F)cc3N3CCC(C(=O)O)CC3)[C@@H](F)C2)cc1` [Example 148], for which the pEC50 is 8.44 and the “Human MC1R IA %” value worked out at 93%.

`COc1ccc([C@@H]2CN(C(C)(C)C)C[C@@]2(F)C(=O)N2CCC(c3ccc(C(F)(F)F)cc3N3CCN(C(N)=O)CC3)CC2)cc1.Cl.Cl` [Example 284, 4-[2-(1-{[(3R,4R)-1-tert-butyl-3-fluoro-4-(4-methoxyphenyl)pyrrolidin-3-yl]carbonyl}piperidin-4-yl)-5-(trifluoromethyl)phenyl]piperazine-1-carboxamide dihydrochloride]: the negative-log EC50 (pEC50) is 7.85 and the “Human MC1R IA %” value worked out at 81%.

Take `COc1ccc([C@@H]2CN(C3CCN(C(CF)CF)CC3)C[C@@]2(F)C(=O)N2CC[C@@H](c3ccc(F)cc3N3CCC(C(=O)O)CC3)C2)cc1` [Example 220]: the pEC50 was 8.55 and the “Human MC1R IA %” value stood at 75%.

For the compound `COc1ccc([C@@H]2CN([C@H]3CC[C@H](OC)CC3)C[C@@]2(F)C(=O)N2CC[C@@H](c3ccc(C(F)(F)F)cc3N3CCC(C(=O)O)CC3)C2)cc1` [Example 213], the pEC50 was 9.05 and the “Human MC1R IA %” value came out at 88%.

As for `COC[C@H]1CN(C(=O)[C@]2(F)CN(CC(=O)N3CCCCC3)C[C@H]2c2ccc(OC)cc2)C[C@@H]1c1ccc(C(F)(F)F)cc1N1CCC(C(=O)O)CC1` [Example 306], the negative-log EC50 (pEC50) is 8.17 and the “Human MC1R IA %” value was determined as 96%.

In the case of `COc1ccc([C@@H]2CN(C(C)(C)C)C[C@@]2(F)C(=O)N2CC(c3ccc(C(F)(F)F)cc3N3CCC(C(=O)N(C)C)CC3)C2)cc1` [Example 249], the pEC50 was 7.43 and the “Human MC1R IA %” value came to 149%.

As for `COc1ccc([C@@H]2CN(C(C)(C)C)C[C@@]2(F)C(=O)N2C[C@H](C(=O)N(C)C)[C@@H](c3ccc(C(F)(F)F)cc3N3CCC(C(=O)O)CC3)C2)cc1.Cl.Cl` [Example 226, 1-{2-[(3S,4R)-1-{[(3R,4R)-1-tert-butyl-3-fluoro-4-(4-methoxyphenyl)pyrrolidin-3-yl]carbonyl}-4-(dimethylcarbamoyl)pyrrolidin-3-yl]-5-(trifluoromethyl)phenyl}piperidine-4-carboxylic acid dihydrochloride], the negative-log EC50 (pEC50) is 7.33 and the “Human MC1R IA %” value is given as 132%.

Consider `COC[C@@H]1C[C@@H](c2ccc(C(F)(F)F)cc2N2CCC(C(=O)O)CC2)CN1C(=O)[C@]1(F)CN(C2CCCCC2)C[C@H]1c1ccc(OC)cc1` [Example 138], for which the pEC50 was 9.01 and the “Human MC1R IA %” value came to 111%.

Turning to `COc1ccc([C@@H]2CN(C3CCCC3)C[C@@]2(F)C(=O)N2C[C@H](c3ccc(C(F)(F)F)cc3N3CCC(C(=O)O)CC3)C[C@H]2CC#N)cc1` [Example 105], the “Human MC1R IA %” value is 86%.

For `COC[C@@H]1C[C@@H](c2ccc(C(F)(F)F)cc2N2CCC(C(=O)O)CC2)CN1C(=O)[C@]1(OC)CN([C@H]2CC[C@H](OC(C)C)CC2)C[C@H]1c1ccc(OC)cc1` [Example 160], the negative-log EC50 (pEC50) is 9.17 and the “Human MC1R IA %” value is 106%.

Turning to `COC[C@@H]1C[C@@H](c2ccc(C(F)(F)F)cc2N(C)CCCC(=O)O)CN1C(=O)[C@]1(F)CN([C@H]2CC[C@H](OC)CC2)C[C@H]1c1ccc(OC)cc1` [Example 115], the pEC50 was 7.96 and the “Human MC1R IA %” value is 85%.

For the compound `COC[C@H]1CN(C(=O)[C@]2(F)CN(C3CCCC3)C[C@H]2c2ccc(OC)cc2)C[C@@H]1c1ccc(C(F)(F)F)cc1N1CCC(C(=O)N(C)CC(=O)O)CC1` [Example 269], the pEC50 is 8.17 and the “Human MC1R IA %” value was determined as 73%.

Consider `COC[C@@H]1C[C@@H](c2ccc(Cl)cc2N2CCC(C(=O)O)CC2)CN1C(=O)[C@]1(F)CN([C@H]2CC[C@H](OC)CC2)C[C@H]1c1ccc(OC)cc1` [Example 111], for which the pEC50 is 8.23 and the “Human MC1R IA %” value turned out to be 83%.

On to `COc1ccc([C@@H]2CN(C(C)(C)C)C[C@@]2(F)C(=O)N2CCC(c3ccc(C(F)(F)F)cc3N3CCC(C(=O)O)CC3)CC2)c(F)c1` [Example 75], for which the pEC50 was 7.24 and the “Human MC1R IA %” value was 111%.

For `COc1ccc([C@@H]2CN(C3CCCC3)C[C@@]2(F)C(=O)N2C[C@H](c3ccc(C(F)(F)F)cc3N3CCC(C(=O)O)CC3)[C@@H](C(C)(C)O)C2)cc1.Cl.Cl` [Example 228, 1-{2-[(3S,4R)-1-{[(3R,4R)-1-cyclopentyl-3-fluoro-4-(4-methoxyphenyl)pyrrolidin-3-yl]carbonyl}-4-(2-hydroxypropan-2-yl)pyrrolidin-3-yl]-5-(trifluoromethyl)phenyl}piperidine-4-carboxylic acid dihydrochloride], the pEC50 is 7.96 and the “Human MC1R IA %” value is 77%.

As to `COC[C@H]1CN(C(=O)[C@]2(F)CN(C3CCOCC3)C[C@H]2c2ccc(OC)cc2)C[C@@H]1c1ccc(C(F)(F)F)cc1N1CCC(C(=O)O)CC1` [Example 95], the pEC50 is 7.92 and the “Human MC1R IA %” value was 72%.

In the case of `COc1ccc([C@@H]2CN(C3CCCC3)C[C@@]2(F)C(=O)N2C[C@H](c3ccc(C(F)(F)F)cc3N3CCC(C(=O)O)CC3)C[C@H]2CC#N)cc1` [Example 300], the “Human MC1R IA %” value stood at 93%.

For the compound `CCC(=O)N1CCC(N2C[C@@H](c3ccc(OC)cc3)[C@](F)(C(=O)N3C[C@H](COC)[C@@H](c4ccc(C(F)(F)F)cc4N4CCC(C(=O)O)CC4)C3)C2)CC1` [Example 327], the negative-log EC50 (pEC50) was 7.64 and the “Human MC1R IA %” value turned out to be 67%.

On to `COc1ccc([C@@H]2CN(C(C)(C)C)C[C@@]2(F)C(=O)N2CCC(c3ccc(C(F)(F)F)cc3OCCCC(=O)NS(=O)(=O)N(C)C)CC2)cc1.Cl` [Example 272, 4-[2-(1-{[(3R,4R)-1-tert-butyl-3-fluoro-4-(4-methoxyphenyl)pyrrolidin-3-yl]carbonyl}piperidin-4-yl)-5-(trifluoromethyl)phenoxy]-N-(dimethylsulfamoyl)butanamide hydrochloride], for which the pEC50 is 7.74 and the “Human MC1R IA %” value turned out to be 91%.

`COC[C@@]1(F)CN(C(=O)[C@]2(F)CN([C@H]3CC[C@H](OC)CC3)C[C@H]2c2ccc(OC)cc2)C[C@@H]1c1ccc(C(F)(F)F)cc1N1CCC(C(=O)O)CC1` [Example 120]: the pEC50 was 8.06 and the “Human MC1R IA %” value came to 109%.

For the compound `CCc1ccc([C@@H]2CN(C(C)(C)C)C[C@@]2(F)C(=O)N2CCC(c3ccc(C(F)(F)F)cc3N3CCC(C(=O)O)CC3)CC2)cc1` [Example 91], the pEC50 was 7.36 and the “Human MC1R IA %” value is 74%.

For `COC[C@H]1CN(C(=O)[C@]2(OC)CN(C3CCCC3)C[C@H]2c2ccc(OC)cc2)C[C@@H]1c1ccc(C(F)(F)F)cc1N1CCC(C(=O)O)CC1` [Example 125], the negative-log EC50 (pEC50) was 7.62 and the “Human MC1R IA %” value was 74%.

As to `COC[C@@H]1C[C@@H](c2ccc(C(F)(F)F)cc2N2CCC(C(=O)O)CC2)CN1C(=O)[C@]1(F)CN(C2CCCC2)C[C@H]1c1ccc(OC)cc1` [Example 134], the negative logarithm of the EC50 (pEC50) is 9.35 and the “Human MC1R IA %” value turned out to be 96%.

With `COc1ccc([C@@H]2CN(C(C)(C)C)C[C@@]2(F)C(=O)N2CCC(c3ccc(C(F)(F)F)cc3[C@H]3C[C@H](C(=O)O)C3)CC2)cc1` [Example 177], the negative-log EC50 (pEC50) was 8.13 and the “Human MC1R IA %” value stood at 80%.

For `COc1ccc([C@@H]2CN(C3CCCC3)C[C@@]2(F)C(=O)N2CC(c3ccc(C(F)(F)F)cc3N3CCC(C(=O)O)CC3)C(F)(F)C2)cc1` (single isomer, unassigned) [Example 294], the pEC50 was 6.09 and the “Human MC1R IA %” value worked out at 81%.

As for `COc1ccc([C@@H]2CN(C(C)(C)C)C[C@@]2(F)C(=O)N2CCC(c3ccc(C(F)(F)F)cc3OCCCC(=O)NS(C)(=O)=O)CC2)cc1` [Example 273], the negative logarithm of the EC50 (pEC50) is 7.89 and the “Human MC1R IA %” value is given as 79%.

For the compound `COC[C@@]1(OC)CN(C(=O)[C@]2(F)CN([C@H]3CC[C@H](OC)CC3)C[C@H]2c2ccc(OC)cc2)C[C@@H]1c1ccc(C(F)(F)F)cc1N1CCC(C(=O)O)CC1` [Example 156], the negative logarithm of the EC50 (pEC50) was 7.54 and the “Human MC1R IA %” value amounted to 83%.

In the case of `COc1ccc([C@@H]2CN(C3CCCC3)C[C@@]2(F)C(=O)N2CCCC(c3ccc(C(F)(F)F)cc3N3CCC(C(=O)O)CC3)C2)cc1` (single isomer, unassigned) [Example 291], the negative-log EC50 (pEC50) was 6.13 and the “Human MC1R IA %” value was found to be 67%.

For `COC[C@H]1CN(C(=O)[C@]2(F)CN(c3ccnc(OC)c3)C[C@H]2c2ccc(OC)cc2)C[C@@H]1c1ccc(C(F)(F)F)cc1N1CCC(C(=O)O)CC1` [Example 61], the pEC50 is 7.52 and the “Human MC1R IA %” value turned out to be 69%.
